Results from patent US5506207A, “GNRH antagonists XIII” (The Salk Institute for Biological Studies, priority 1994, dated 1996).
Entries after “also recorded” stand apart in the source; their conditions may differ. Square brackets hold non-standard residues; d marks the D form. Peptide text beside a SMILES is read from it. * marks the point of attachment. dPhe(4-NH2) = Nc1ccc(C[C@@H](N)C(=O)O)cc1; dPhe(4-Cl) = N[C@H](Cc1ccc(Cl)cc1)C(=O)O; Phe(4-NH2) = Nc1ccc(C[C@H](N)C(=O)O)cc1; d2Nal = N[C@H](Cc1ccc2ccccc2c1)C(=O)O; Lys(iPr) = CC(C)NCCCC[C@H](N)C(=O)O; d3Pal = N[C@H](Cc1cccnc1)C(=O)O; X1 = Nc1n[nH]c(NCC(=O)*)n1

Key:
[1] = tested on: mature female Sprague-Dawley rats; assay: examination of treated rats for tolerance and gelling at the point of injection; type: in vivo, rat; conditions: rats injected with peptide in bacteriostatic water
[2] = solubility in aqueous buffers; type: physicochemical; conditions: pH from about 5 to about 7

## CC(=O)N[C@H](Cc1ccc2ccccc2c1)C(=O)N[C@H](Cc1ccc(Cl)cc1)C(=O)N[C@H](Cc1cccnc1)C(=O)N[C@@H](CO)C(=O)N[C@@H](Cc1ccc(NC(=O)CNc2nc(N)n[nH]2)cc1)C(=O)N[C@H](Cc1ccc(NC(=O)CNc2nc(N)n[nH]2)cc1)C(=O)N[C@@H](CC(C)C)C(=O)N[C@@H](CCCCNC(C)C)C(=O)N1CCC[C@H]1C(=O)N[C@H](C)C(N)=O [Peptide No. 1, [Ac-β-D-2NAL^1, (4Cl)D-Phe^2, D-3PAL^3, Aph(Gly)(atz)^5, D-Aph(Gly)(atz)^6, ILys^8, D-Ala^10]-GnRH] (Ac-[d2Nal][dPhe(4-Cl)][d3Pal]S[Phe(4-NH2)](X1)[dPhe(4-NH2)](X1)L[Lys(iPr)]P[dA]-NH2)
[1]
  tolerance and gelling at the point of injection: very well tolerated with no significant gelling at the point of injection being detectable; also recorded: resistance to in vivo gelling
[2]
  solubility in aqueous buffers: solubility in aqueous buffers at a pH of from about 5 to about 7
